The assay concerns the target T1, Recombinant human renin (Homo sapiens, UniProt P00797).
T1 construct: isolate the active form (residues 67-406); made in house; host or cells: FreeStyle 293-F cells, transient expression of pcDNA3.1(+)/hREN
T1 sequence (P00797 67-406): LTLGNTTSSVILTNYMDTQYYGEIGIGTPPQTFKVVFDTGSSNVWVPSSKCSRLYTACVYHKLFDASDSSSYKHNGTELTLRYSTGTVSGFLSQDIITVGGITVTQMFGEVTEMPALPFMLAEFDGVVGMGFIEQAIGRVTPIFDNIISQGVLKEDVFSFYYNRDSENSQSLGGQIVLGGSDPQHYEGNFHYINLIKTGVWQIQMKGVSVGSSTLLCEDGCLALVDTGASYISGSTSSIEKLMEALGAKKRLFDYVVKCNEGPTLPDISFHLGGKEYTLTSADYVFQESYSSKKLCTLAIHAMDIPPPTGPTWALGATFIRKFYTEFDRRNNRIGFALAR
In words: In vitro enzymatic activity assay of renin inhibitors (fluorescence, QXL520/HiLyteFluo488 peptide substrate). The conditions noted are these: recombinant human renin 3 nM, 1 μM substrate, pre-incubated 10 minutes at 37° C., incubation one hour, pH 7.4, 5% DMSO; read-out: IC50 of Exemplified Compounds Against Renin. The class given is biochemical.
Usually IC50 stands for the concentration that gives 50% inhibition. On to `COCCCOc1cccc(-n2c(-c3ccccc3)c(C(=O)N3CCNCC3)n(Cc3cccc(Oc4ccccc4)c3)c2=O)c1` [Example 75, 1-(3-(3-Methoxypropoxy)phenyl)-3-(3-phenoxybenzyl)-5-phenyl-4-(piperazine-1-carbonyl)-1H-imidazol-2(3H)-one], for which the IC50 is less than 100 nM. For `O=C(c1c(-c2ccccc2)n(-c2cccc(N3CCOCC3)c2)c(=O)n1Cc1cccc(OCc2ccccc2)c1)N1CCNCC1` [Example 76, 1-(3-(Benzyloxy)benzyl)-3-(3-morpholinophenyl)-4-phenyl-5-(piperazine-1-carbonyl)-1H-imidazol-2(3H)-one], the IC50 was less than 100 nM. For `O=C(c1c(-c2ccccc2)n(-c2cccc(N3CCOCC3)c2)c(=O)n1Cc1cccc(-n2cccc2)c1)N1CCNCC1` [Example 77, 1-(3-(1H-Pyrrol-1-yl)benzyl)-3-(3-morpholinophenyl)-4-phenyl-5-(piperazine-1-carbonyl)-1H-imidazol-2(3H)-one], the IC50 was less than 100 nM.

In the case of `CC(C)CN(C)C(=O)c1cccc(Cn2c(C(=O)N3CCNCC3)c(-c3ccccc3)n(-c3cccc(N4CCOCC4)c3)c2=O)c1` [Example 78, N-isobutyl-N-methyl-3-((3-(3-morpholinophenyl)-2-oxo-4-phenyl-5-(piperazine-1-carbonyl)-2,3-dihydro-1H-imidazol-1-yl)methyl)benzamide], the 50% inhibitory concentration (IC50) was more than 1000 nM. In the case of `N#Cc1cccc(Cn2c(C(=O)N3CCNCC3)c(-c3ccccc3)n(-c3ccccc3)c2=O)c1` [Example 79, 3-((2-oxo-3,4-diphenyl-5-(piperazine-1-carbonyl)-2,3-dihydro-1H-imidazol-1-yl)methyl)benzonitrile], the IC50 was in the range of 500 to 1000 nM.

Turning to `COC(=O)c1cccc(Cn2c(C(=O)N3CCNCC3)c(-c3ccccc3)n(-c3ccccc3)c2=O)c1` [Example 80, Methyl 3-((2-oxo-3,4-diphenyl-5-(piperazine-1-carbonyl)-2,3-dihydro-1H-imidazol-1-yl)methyl)benzoate], the IC50 was more than 1000 nM. Regarding `O=C(c1c(-c2ccccc2)n(C2CCOCC2)c(=O)n1Cc1ccccc1)N1CCNCC1` [Example 81, 1-Benzyl-4-phenyl-5-(piperazine-1-carbonyl)-3-(tetrahydro-2H-pyran-4-yl)-1H-imidazol-2(3H)-one], the IC50 was more than 1000 nM.

Regarding `O=C(c1c(-c2ccccc2)n(-c2ccccc2)c(=O)n1Cc1cccc2cccnc12)N1CCNCC1` [Example 82, 1,5-Diphenyl-4-(piperazine-1-carbonyl)-3-(quinolin-8-ylmethyl)-1H-imidazol-2(3H)-one], the half-maximal inhibitory concentration (IC50) is more than 1000 nM. Turning to `COc1cccc(Cn2c(C(=O)N3CCNCC3)c(-c3ccccc3)n(-c3ccccc3)c2=O)c1` [Example 83, 1-(3-methoxybenzyl)-3,4-diphenyl-5-(piperazine-1-carbonyl)-1H-imidazol-2(3H)-one], the half-maximal inhibitory concentration (IC50) lay in the range of 100 to 500 nM. `O=C(c1c(-c2ccccc2)n(-c2ccccc2)c(=O)n1Cc1ccc2ccccc2c1)N1CCNCC1` [Example 84, 1-(Naphthalen-2-ylmethyl)-3,4-diphenyl-5-(piperazine-1-carbonyl)-1H-imidazol-2(3H)-one]: the IC50 fell in the range of 100 to 500 nM. Consider `N#Cc1ccccc1Cn1c(C(=O)N2CCNCC2)c(-c2ccccc2)n(-c2ccccc2)c1=O` [Example 85, 2-((2-Oxo-3,4-diphenyl-5-(piperazine-1-carbonyl)-2,3-dihydro-1H-imidazol-1-yl)methyl)benzonitrile], for which the IC50 is more than 1000 nM. The result for `COc1cc(Cn2c(C(=O)N3CCNCC3)c(-c3ccccc3)n(-c3ccccc3)c2=O)cc(OC)c1` [Example 86, 1-(3,5-Dimethoxybenzyl)-3,4-diphenyl-5-(piperazine-1-carbonyl)-1H-imidazol-2(3H)-one] reads 100 to 500 nM; that for `O=C(c1c(-c2ccccc2)n(-c2ccccc2)c(=O)n1Cc1ccc(Cl)c(OC(F)(F)F)c1)N1CCNCC1` [Example 87, 1-(4-Chloro-3-(trifluoromethoxy)benzyl)-3,4-diphenyl-5-(piperazine-1-carbonyl)-1H-imidazol-2(3H)-one], 100 to 500 nM; that for `O=C(c1c(-c2ccccc2)n(-c2ccccc2)c(=O)n1Cc1cccc(-n2cccc2)c1)N1CCNCC1` [Example 88, 1-(3-(1H-Pyrrol-1-yl)benzyl)-3,4-diphenyl-5-(piperazine-1-carbonyl)-1H-imidazol-2(3H)-one], less than 100 nM.

For `O=C(c1[nH]c(=O)n(C2CCCCC2)c1-c1ccccc1)N1CCCNCC1` [Example 89, 1-Cyclohexyl-4-(1,4-diazepane-1-carbonyl)-5-phenyl-1H-imidazol-2(3H)-one], the IC50 is more than 1000 nM. The value for `O=C(c1c(-c2ccccc2)n(C2CCCCC2)c(=O)n1Cc1cc(Cl)nc(N2CCOCC2)c1)N1CCNCC1` [Example 90, 1-((2-Chloro-6-morpholinopyridin-4-yl)methyl)-3-cyclohexyl-4-phenyl-5-(piperazine-1-carbonyl)-1H-imidazol-2(3H)-one] was 500 to 1000 nM.

Take `O=C(c1c(-c2ccccc2)n(C2CCCCC2)c(=O)n1Cc1cc(-c2cn[nH]c2)nc(-c2cn[nH]c2)c1)N1CCNCC1` [Example 91, 1-Cyclohexyl-3-((2,6-di(1H-pyrazol-4-yl)pyridin-4-yl)methyl)-5-phenyl-4-(piperazine-1-carbonyl)-1H-imidazol-2(3H)-one]: the IC50 is 100 to 500 nM.

Consider `COc1cccc(Cn2c(C(=O)N3CCNCC3)c(-c3ccccc3)n(C3CCCN(C(C)=O)C3)c2=O)c1` (stereo not drawn) [Example 92, 1-(1-Acetylpiperidin-3-yl)-3-(3-methoxybenzyl)-5-phenyl-4-(piperazine-1 carbonyl)-1H-imidazol-2(3H)-one], for which the half-maximal inhibitory concentration (IC50) is more than 1000 nM. For `CC(=O)N1CCCC(n2c(-c3ccccc3)c(C(=O)N3CCNCC3)n(Cc3ccccc3)c2=O)C1` (stereo not drawn) [Example 93, 1-(1-Acetylpiperidin-3-yl)-3-benzyl-5-phenyl-4-(piperazine-1-carbonyl)-1H-imidazol-2(3H)-one], the half-inhibitory concentration (IC50) was more than 1000 nM. The result for `CC(=O)N1CCCC(n2c(-c3ccccc3)c(C(=O)N3CCNCC3)[nH]c2=O)C1` (stereo not drawn) [Example 94, 1-(1-Acetylpiperidin-3-yl)-5-phenyl-4-(piperazine-1-carbonyl)-1H-imidazol-2(3H)-one] reads more than 1000 nM. On to `O=C(c1ccccc1)N1CCCC(n2c(-c3ccccc3)c(C(=O)N3CCNCC3)n(Cc3ccccc3)c2=O)C1` (stereo not drawn) [Example 95, 1-(1-Benzoylpiperidin-3-yl)-3-benzyl-5-phenyl-4-(piperazine-1-carbonyl)-1H-imidazol-2(3H)-one], for which the half-inhibitory concentration (IC50) is more than 1000 nM.

For the molecule `O=C(c1c(-c2ccccc2)n(C2CCCN(S(=O)(=O)c3ccccc3)C2)c(=O)n1Cc1ccccc1)N1CCNCC1` (stereo not drawn) [Example 96, 1-Benzyl-4-phenyl-3-(1-(phenylsulfonyl)piperidin-3-yl)-5-(piperazine-1-carbonyl)-1H-imidazol-2(3H)-one], the IC50 lay within 500 to 1000 nM. As to `O=C(c1ccco1)N1CCCC(n2c(-c3ccccc3)c(C(=O)N3CCNCC3)n(Cc3ccccc3)c2=O)C1` (stereo not drawn) [Example 97, 1-Benzyl-3-(1-(furan-2-carbonyl)piperidin-3-yl)-4-phenyl-5-(piperazine-1-carbonyl)-1H-imidazol-2(3H)-one], the IC50 is more than 1000 nM. Regarding `O=C(c1[nH]c(=O)n(C2CCCN(S(=O)(=O)c3ccccc3)C2)c1-c1ccccc1)N1CCNCC1` (stereo not drawn) [Example 98, 5-Phenyl-1-(1-(phenylsulfonyl)piperidin-3-yl)-4-(piperazine-1-carbonyl)-1H-imidazol-2(3H)-one], the 50% inhibitory concentration (IC50) fell in the range of 500 to 1000 nM.

For the molecule `CC(=O)N1CCCC(n2c(-c3ccccc3)c(C(=O)N3CCNCC3)n(Cc3cccc(Oc4ccccc4)c3)c2=O)C1` (stereo not drawn) [Example 99, 1-(1-Acetylpiperidin-3-yl)-3-(3-phenoxybenzyl)-5-phenyl-4-(piperazine-1-carbonyl)-1H-imidazol-2(3H)-one], the 50% inhibitory concentration (IC50) was more than 1000 nM. As to `O=C(c1c(-c2ccccc2)n(C2CCCN(S(=O)(=O)c3ccccc3)C2)c(=O)n1Cc1ccccc1)N1CCNCC1` (stereo not drawn) [Example 100, 1-Benzyl-4-phenyl-3-(1-(phenylsulfonyl)piperidin-3-yl)-5-(piperazine-1-carbonyl)-1H-imidazol-2(3H)-one], the IC50 lay in the range of 500 to 1000 nM. The result for `O=C(c1c(-c2ccccc2)n(C2CCCN(S(=O)(=O)c3ccccn3)C2)c(=O)n1Cc1ccccc1)N1CCNCC1` (stereo not drawn) [Example 101, 1-Benzyl-4-phenyl-5-(piperazine-1-carbonyl)-3-(1-(pyridin-2-ylsulfonyl)piperidin-3-yl)-1H-imidazol-2(3H)-one] reads more than 1000 nM; that for `O=C(c1c(-c2ccccc2)n(C2CCCN(S(=O)(=O)c3ccccc3)C2)c(=O)n1Cc1cccc(Oc2ccccc2)c1)N1CCNCC1` (stereo not drawn) [Example 102, 1-(3-Phenoxybenzyl)-4-phenyl-3-(1-(phenylsulfonyl)piperidin-3-yl)-5-(piperazine-1-carbonyl)-1H-imidazol-2(3H)-one], 100 to 500 nM; that for `O=C(c1c(-c2ccccc2)n(C2CCCN(S(=O)(=O)c3ccccn3)C2)c(=O)n1Cc1cccc(Oc2ccccc2)c1)N1CCNCC1` (stereo not drawn) [Example 103, 1-(3-Phenoxybenzyl)-4-phenyl-5-(piperazine-1-carbonyl)-3-(1-(pyridin-2-ylsulfonyl)piperidin-3-yl)-1H-imidazol-2(3H)-one], 100 to 500 nM. Consider `CC(=O)N1CCCC(n2c(-c3ccccc3)c(C(=O)N3CCNC[C@H]3Cc3ccccc3)[nH]c2=O)C1` (stereo partly drawn) [Example 104, 1-(1-Acetylpiperidin-3-yl)-4-((R)-2-benzylpiperazine-1-carbonyl)-5-phenyl-1H-imidazol-2(3H)-one], for which the 50% inhibitory concentration (IC50) fell in the range of 500 to 1000 nM.
